What all share (format): functional, cell-based
The subject of one assay is A549. As to the kind of experiment: Antiproliferative activity against human A549 cells assessed as cell growth inhibition by MTT assay. In general terms: Tetrazolium dyes change colour on reduction, which living cells bring about.
A further assay relates to HeLa. In words: Antiproliferative activity against human HeLa cells assessed as cell growth inhibition by MTT assay.
For another assay, the system named is MCF7. As to the kind of experiment: Antiproliferative activity against human MCF7 cells assessed as cell growth inhibition by MTT assay.
Another assay concerns SK-N-SH. As to the kind of experiment: Antiproliferative activity against human SK-N-SH cells assessed as cell growth inhibition by MTT assay.

The term IC50 denotes the point on the concentration scale where inhibition reaches its midpoint. Take `CCCCCCCCCCn1cc(/C=C/C(=O)c2ccc(N)cc2)nn1`: the IC50 was determined as 35.6 µM in the assay on A549, 73.5 µM in the assay on HeLa, 52.6 µM in the assay on MCF7 and 83.4 µM in the assay on SK-N-SH.
Regarding `CCCCCCCCn1cc(/C=C/C(=O)c2ccc(NC(=O)CN3CCN(c4ccc([N+](=O)[O-])cc4)CC3)cc2)nn1`, the IC50 in the assay with A549 turned out to be 45.4 µM; with HeLa, 30.2 µM; in the assay with MCF7, 49.1 µM; in the assay with SK-N-SH, 51.4 µM.
The corresponding values for `CCCCCCCCn1cc(/C=C/C(=O)c2ccc(NC(=O)CN3CCN(c4ccccc4OC)CC3)cc2)nn1` are 34 µM, 26.8 µM, 30 µM and 21.5 µM.
On to `O=C(CN1CCN(c2ccccc2)CC1)Nc1ccc(C(=O)/C=C/c2cn(Cc3ccc(Br)cc3)nn2)cc1`, for which the IC50 worked out at 42.1 µM in the assay with A549, 79.7 µM with HeLa, 49.2 µM in the assay on MCF7 and 72.4 µM in the assay on SK-N-SH.
In the case of `CCCCCCCCn1cc(/C=C/C(=O)c2ccc(N)cc2)nn1`, the IC50 came out at 26.9 µM in the assay on A549, 26.9 µM in the assay with HeLa, 31 µM in the assay on MCF7 and 28.8 µM with SK-N-SH.
As to `CC(C)(C)OC(=O)N1CCN(CC(=O)Nc2ccc(C(=O)/C=C/c3cn(Cc4ccc(Br)cc4)nn3)cc2)CC1`, the IC50 in the assay on A549 is 38.4 µM; in the assay with HeLa it was 18.9 µM; with MCF7, 31 µM; with SK-N-SH, 25.8 µM.
For the compound `CCCCCCCCCCn1cc(/C=C/C(=O)c2ccc(NC(=O)CN3CCN(c4ccccc4F)CC3)cc2)nn1`, the IC50 with A549 came out at 57 µM; with HeLa it was 47.8 µM; in the assay with MCF7 it was 40.4 µM; with SK-N-SH it was 34.4 µM.
Turning to `CCCCCCCCn1cc(/C=C/C(=O)c2ccc(NC(=O)CN3CCN(c4ccccc4)CC3)cc2)nn1`, the IC50 in the assay on A549 was found to be 52.4 µM; in the assay with HeLa it was 33.8 µM; in the assay on MCF7, 31.9 µM; in the assay with SK-N-SH, 41.4 µM.
Regarding `CCCCCCCCn1cc(/C=C/C(=O)c2ccc(NC(=O)CN3CCN(C(=O)OC(C)(C)C)CC3)cc2)nn1`, the IC50 in the assay with A549 was 43.3 µM; with HeLa, 32 µM; in the assay with MCF7, 98.4 µM; in the assay with SK-N-SH it was 38 µM.
In the case of `O=C(CN1CCN(c2ccc([N+](=O)[O-])cc2)CC1)Nc1ccc(C(=O)/C=C/c2cn(Cc3ccc(Br)cc3)nn2)cc1`, the IC50 worked out at 45.5 µM in the assay with A549, 26.6 µM with HeLa, 31.6 µM in the assay with MCF7 and 26.4 µM with SK-N-SH.
As for `CCCCCCCCCCn1cc(/C=C/C(=O)c2ccc(NC(=O)CBr)cc2)nn1`, the IC50 worked out at 9.74 µM in the assay on A549, 7.41 µM in the assay on HeLa, 9.76 µM in the assay with MCF7 and 8.68 µM in the assay on SK-N-SH.
In the case of `CCCCCCCCCCn1cc(/C=C/C(=O)c2ccc(NC(=O)CN3CCC(Cc4ccccc4)CC3)cc2)nn1`, the IC50 stood at 67.7 µM in the assay with A549, 71.7 µM in the assay with HeLa, 55.2 µM in the assay with MCF7 and 33.3 µM in the assay with SK-N-SH.
For the compound `O=C(CN1CCN(c2ccccc2F)CC1)Nc1ccc(C(=O)/C=C/c2cn(Cc3ccc(Br)cc3)nn2)cc1`, the IC50 in the assay with A549 is 14.7 µM; with HeLa, 9.12 µM; with MCF7, 11.3 µM; in the assay on SK-N-SH, 12.8 µM.
The corresponding values for `CCCCCCCCn1cc(/C=C/C(=O)c2ccc(NC(=O)CBr)cc2)nn1` are 11.6 µM, 8.42 µM, 12.9 µM and 8.46 µM.
Turning to `O=C(CN1CCC(Cc2ccccc2)CC1)Nc1ccc(C(=O)/C=C/c2cn(Cc3ccc(Br)cc3)nn2)cc1`, the IC50 in the assay with A549 was found to be 40 µM; in the assay on HeLa it was 41.9 µM; in the assay with MCF7, 54.5 µM; with SK-N-SH, 42.9 µM.
The corresponding values for `CCCCCCCCn1cc(/C=C/C(=O)c2ccc(NC(=O)CN3CCN(c4ccccc4F)CC3)cc2)nn1` are 47.1 µM, 33.8 µM, 68.6 µM and 60.3 µM.
The matching figures for `CCCCCCCCCCn1cc(/C=C/C(=O)c2ccc(NC(=O)CN3CCN(c4ccccc4)CC3)cc2)nn1`: 52.1 µM, 59.1 µM, over 100 µM and 39.5 µM.
The corresponding values for `CCCCCCCCCCn1cc(/C=C/C(=O)c2ccc(NC(=O)CN3CCN(C(=O)OC(C)(C)C)CC3)cc2)nn1` are 45.4 µM, 30.2 µM, 40 µM and 77.8 µM.
`Nc1ccc(C(=O)/C=C/c2cn(Cc3ccc(Br)cc3)nn2)cc1`: the IC50 with A549 was determined as 15.8 µM; with HeLa, 16.4 µM; with MCF7, 25.3 µM; in the assay with SK-N-SH it was 25.2 µM.
The matching figures for `O=C(CBr)Nc1ccc(C(=O)/C=C/c2cn(Cc3ccc(Br)cc3)nn2)cc1`: 8.67 µM, 7.95 µM, 10.1 µM and 8.3 µM.
For the compound `COc1ccccc1N1CCN(CC(=O)Nc2ccc(C(=O)/C=C/c3cn(Cc4ccc(Br)cc4)nn3)cc2)CC1`, the IC50 in the assay with A549 turned out to be 34 µM; with HeLa it was 26.4 µM; in the assay with MCF7 it was 36.8 µM; with SK-N-SH, 28 µM.
The matching figures for `CCCCCCCCCCn1cc(/C=C/C(=O)c2ccc(NC(=O)CN3CCN(c4ccc([N+](=O)[O-])cc4)CC3)cc2)nn1`: 64.5 µM, 65.9 µM, 44.4 µM and 40.9 µM.
For `CCCCCCCCCCn1cc(/C=C/C(=O)c2ccc(NC(=O)CN3CCN(c4ccccc4OC)CC3)cc2)nn1`, the IC50 in the assay with A549 amounted to 62.5 µM; in the assay on HeLa, 50.8 µM; in the assay on MCF7, 44.8 µM; in the assay on SK-N-SH, 87.6 µM.
`CCCCCCCCn1cc(/C=C/C(=O)c2ccc(NC(=O)CN3CCC(Cc4ccccc4)CC3)cc2)nn1`: the IC50 in the assay with A549 was determined as 43.8 µM; in the assay on HeLa, 78.6 µM; with MCF7 it was 52.6 µM; in the assay with SK-N-SH, 57 µM.
The matching figures for `COc1cccc2c1C(=O)c1c(O)c3c(c(O)c1C2=O)C[C@@](O)(C(=O)CO)C[C@@H]3O[C@H]1C[C@H](N)[C@H](O)[C@H](C)O1` [DOXORUBICIN]: 3.24 µM, 2.78 µM, 3.7 µM and 2.85 µM.
